The text below walks through data of publication PMC3578121 (Journal of molecular biology, 2012).

Series [1] concerns the target VCCβ-prism (isolated β-prism domain of Vibrio cholerae cytolysin) (Vibrio cholerae serotype O1, UniProt P09545). Kind of series: biochemical. Type of series: binding.
The subject of series [2] is VCCWT. Type of series: binding, Vibrio cholerae.
Series [3] concerns VCC. The conditions noted are these: cited from earlier work.
The target of series [4] is VCCβ-prism (Vibrio cholerae serotype O1, UniProt P09545). In kind it is binding.
VCCβ-prism, sequence (P09545 611-741 limits assumed): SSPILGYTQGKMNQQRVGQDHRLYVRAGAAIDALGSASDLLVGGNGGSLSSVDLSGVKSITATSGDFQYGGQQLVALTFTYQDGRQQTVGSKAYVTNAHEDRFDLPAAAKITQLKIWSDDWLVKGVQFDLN
Series [5] has as its system rabbit whole blood lysis by wild-type VCC.
Series [6] deals with D617K mutant of VCC. Type of series: binding, Vibrio cholerae.

Where “and” joins values, the source holds several entries; their conditions need not be identical. Equal values may be shown once. Read-outs that look alike come from different tables or passages of the source.

VCCβ-prism (isolated β-prism domain of Vibrio cholerae cytolysin), sequence (P09545 611-741 limits assumed): as above

Consider `O=C[C@H](O)[C@@H](O)[C@H](O[C@@H]1O[C@H](CO)[C@@H](O)[C@H](O)[C@H]1O)[C@H](O)CO` [cellobiose, glucose-β1,4-glucose], for which the “Binding detected by ITC” value in series [1] was “did not bind”.

Consider `C[C@H](O)[C@@H](O)[C@@H](O)[C@H](O)C=O` [Fucose, L-fucose], for which the “Binding detected by ITC” value in series [1] is reported as “did not exhibit measurable binding”.

In the case of `CO[C@H]1O[C@H](CO)[C@H](O)[C@H](O)[C@H]1O` [Me-α-Galactose, Me-α-D-galactose], the “Binding detected by ITC” value in series [1] is “did not bind”.

In the case of “galactose-β-1,4(fucose-α-1,3)N-acetyl glucosamine [Lewis X]”, the “Average fluorescence of VCC binding to glycan” value (shortened to “Average fluorescence”) in series [2] is given as at most 100 RFUs.

Turning to `COC1OC(CO)C(O)C(O)C1O` [Me-α-Glucose, Me-α-D-glucose], in series [1], the Kd is 7.1 mM and 7.09 mM; the ΔG is -2.944 kcal/mol.

In series [1], `OC[C@H]1OC(O)[C@@H](O)[C@@H](O)[C@@H]1O` (stereo partly drawn) [Mannose, D-mannose] came in with a Kd of 14.8 ± 1.18 mM and a ΔG of -2.456 kcal/mol.

Consider galactose-α-1,4-galactose [galabiose], for which, in series [2], the “Average fluorescence” value was at most 100 RFUs.

`CC(=O)N[C@@H]1[C@@H](O)[C@H](O)[C@@H](CO)O[C@H]1O` [N-acetylglucosamine, N-acetyl-D-glucosamine]: the “Binding detected by ITC” value in series [1] is recorded as “did not exhibit measurable binding”.

As for `COC1OC(CO)C(O)C(O)C1O` [Me-β-Glucose, Me-β-D-glucose], the “Binding detected by ITC” value in series [1] is “did not bind”.

In the case of fetuin, in series [3], the “Inhibition of VCC activity” value is given as “inhibited”.

For “GlcNAcβ1-2Manα1-6(GlcNAcβ1-2Manα1-3)Manβ1-4GlcNAcβ1-4GlcNAc [NGA2]”, the association rate ka in series [4] is on record as 37,000 M^−1s^−1. Further, the dissociation rate kd in series [4] was 0.040 s⁻¹. In addition, the Kd was around 0.0001 mM in series [4] (read-out: Affinity (approximate summary)), 0.000183 mM in series [4] (read-out: KD (equilibrium analysis)) and 0.000108 mM in series [4] (read-out: KD (kinetic fit)).

As to `COC1OC(CO)C(O)C(O)C1O` (stereo not drawn) [Me-α-Mannose, methyl-α-mannose], the “Effect on half-life (t1/2) of rabbit blood hemolysis by VCC” value in series [5] was “no effect”. Also, the “Binding detected by ITC” value in series [6] is recorded as “could not detect measurable binding”. In addition, in series [1], the “Increase in affinity of Me-α-D-mannose over D-mannose” value was “roughly five-fold increase”, the Kd amounted to 3.24 ± 0.1 mM and the ΔG was -3.424 kcal/mol.

`COC1OC(CO)C(O)C(O)C1O` [Me-β-Galactose, Me-β-D-galactose]: the “Binding detected by ITC” value in series [1] is reported as “did not bind”.

For lacto-N-biose, in series [2], the “Average fluorescence” value is on record as at most 100 RFUs.

Regarding `CO[C@@H]1O[C@H](CO)[C@@H](O)[C@H](O)[C@@H]1O` [Me-β-D-mannose], the “Binding detected by ITC” value in series [1] is recorded as “loss of binding”.

As to `OC[C@H]1O[C@H](O[C@H]2[C@H](O)[C@@H](O)C(O)O[C@@H]2CO)[C@H](O)[C@@H](O)[C@@H]1O` (mixture of isomers) [Maltose, glucose-α1,4-glucose], in series [1], the “KD of maltose relative to KD of Me-α-mannose” value was determined as 10 fold, the Kd came to 30.9 ± 3.17 mM and the ΔG is -2.09 kcal/mol.

In series [1], `OC[C@H]1OC(O)[C@H](O)[C@@H](O)[C@@H]1O` (stereo partly drawn) [Glucose] yielded a Kd of 12 ± 0.6 mM and a ΔG of -2.679 kcal/mol.
